Test results taken from patent US12678454B2, “Bicarbonate as a potentiator for antimicrobial agents” (priority 2017, dated 2026).
Marks after values point to notes of the source that are not given here.

Key:
E. coli (K-12 BW25113) = format: cell-based, Escherichia coli; parameters: MIC, E. coli, MHB− / MIC, E. coli, MHB+: unit not given here; details: for MIC, E. coli, MHB−: MHB without sodium bicarbonate
Procedure: (§1) In the following experiments, bacterial cells were cultured in 96-well microtiter plates in cation-adjusted Mueller-Hinton Broth (MHB) for 18 h at 37° C. The main strains used in this study were E. coli (K-12 BW25113) (placed in stationary incubator) and S. aureus (Strain Newman) (incubated at 250 r.p.m). Knockout strains (ΔtolcC and ΔychM) were used from the Keio knockout collection (Baba, T. et al. Construction of Escherichia coli K-12 in-frame, single-gene knockout mutants: the Keio collection. Mol Syst Biol 2, 2006 0008, doi:10.1038/msb4100050 (2006)). For minimum concentration for inhibition (MIC) determination and checkerboard analyses, Clinical & Laboratory Standards Institute (CLSI) protocol was used. […] DiSC3 loading of S. aureus cells was performed as previously described (Farha, M. A., Verschoor, C. P., Bowdish, D. & Brown, E. D. Collapsing the proton motive force to identify synergistic combinations against Staphylococcus aureus. Chemistry & biology 20, 1168-1178, doi:10.1016/j.chembiol.2013.07.006 (2013)). CCCP concentration of 20 μM was used. pH adjustments were made by addition of HCl or NaOH. INT assay and ATP bioluminescence assays were performed as previously described (Farha, M. A., Verschoor, C. P., Bowdish, D. & Brown, E. D. Collapsing the proton motive force to identify synergistic combinations against Staphylococcus aureus. Chemistry & biology 20, 1168-1178, doi:10.1016/j.chembiol.2013.07.006 (2013)). For chemical-genomic studies, the Keio library was grown overnight in cation-adjusted MHB broth, in 384-well plates. From these, treatment plates (25 mM sodium bicarbonate, or a sterile water control) were inoculated and grown for 15 hours at 37° C., in a stationary incubator. Data was normalized according to Mangat et al (Mangat, C. S., Bharat, A., Gehrke, S. S. & Brown, E. D. Rank ordering plate data facilitates data visualization and normalization in high-throughput screening. J Biomol Screen 19, 1314-1320, doi:10.1177/1087057114534298 (2014)), with gene products and GO terms mined from EcoCyc. The GFP promoter library (Keseler, I. M. et al. EcoCyc: fusing model organism databases with systems biology. Nucleic Acids Res 41, D605-612, doi:10.1093/nar/gks1027 (2013)) was grown for 18 hours at ambient temperature with the same inoculation strategy as with the Keio collection. The analysis pipeline of Zaslaver et al (Zaslaver, A. et al. A comprehensive library of fluorescent transcriptional reporters for Escherichia coli. Nat Methods 3, 623-628, doi:10.1038/nmeth895 (2006)) was used to generate maps of promoter activity, from which lists of promoters with increased or decreased activity were compiled.

[1] = system: S. aureus (Strain Newman); experiment: MIC determination (CLSI protocol) in MHB; format: cell-based, Staphylococcus aureus; details: for MIC, S. aureus, MHB−: MHB without sodium bicarbonate
Procedure: as §1

CCN1CCN(C(=O)N[C@@H](C(=O)N[C@@H]2C(=O)N3C(C(=O)O)=C(CSc4nnnn4C)CS[C@H]23)c2ccc(O)cc2)C(=O)C1=O [Cefoperazone]
Fold, E. coli (E. coli (K-12 BW25113)): 1 fold
MIC, E. coli, MHB+ (E. coli (K-12 BW25113)): 0.125
Fold, S. aureus [1]: −16 fold
MIC, S. aureus, MHB− [1]: 0.25 µg/mL

CO/N=C(\C(=O)N[C@@H]1C(=O)N2C(C(=O)O)=C(CSc3nc(=O)c(=O)[nH]n3C)CS[C@H]12)c1csc(N)n1 [Ceftriaxone]
Fold, E. coli (E. coli (K-12 BW25113)): 1 fold
MIC, E. coli, MHB+ (E. coli (K-12 BW25113)): 0.625
Fold, S. aureus [1]: −4 fold
MIC, S. aureus, MHB− [1]: 4 µg/mL

CC[C@H]1OC(=O)[C@H](C)[C@@H](O[C@H]2C[C@@](C)(OC)[C@@H](O)[C@H](C)O2)[C@H](C)[C@@H](O[C@@H]2O[C@H](C)C[C@H](N(C)C)[C@H]2O)[C@](C)(O)C[C@@H](C)[C@@H]2N[C@@H](COCCOC)O[C@H]([C@H]2C)[C@]1(C)O [Dirithromycin]
Fold, E. coli (E. coli (K-12 BW25113)): 32 fold
MIC, E. coli, MHB+ (E. coli (K-12 BW25113)): 4
Fold, S. aureus [1]: 8 fold
MIC, S. aureus, MHB− [1]: 4 µg/mL

CO[C@H]1/C=C/O[C@@]2(C)Oc3c(C)c(O)c4c(O)c(c(/C=N/N5CCN(C)CC5)c(O)c4c3C2=O)NC(=O)/C(C)=C\C=C\[C@H](C)[C@H](O)[C@@H](C)[C@@H](O)[C@@H](C)[C@H](OC(C)=O)[C@@H]1C [Rifampicin]
Fold, E. coli (E. coli (K-12 BW25113)): −2 fold
MIC, E. coli, MHB+ (E. coli (K-12 BW25113)): 64
Fold, S. aureus [1]: −4 fold
MIC, S. aureus, MHB− [1]: 0.0078 µg/mL

Cc1onc(-c2ccccc2Cl)c1C(=O)N[C@@H]1C(=O)N2[C@@H]1SC(C)(C)[C@@H]2C(=O)O [Cloxacillin]
Fold, E. coli (E. coli (K-12 BW25113)): 1 fold
MIC, E. coli, MHB+ (E. coli (K-12 BW25113)): 256
Fold, S. aureus [1]: −16 fold
MIC, S. aureus, MHB− [1]: 0.031 µg/mL

N[C@@H]1CCCCN(c2c(F)cc3c(=O)c(C(=O)O)cn(C4CC4)c3c2Cl)C1 [Besifloxacin]
Fold, E. coli (E. coli (K-12 BW25113)): 8 fold
MIC, E. coli, MHB+ (E. coli (K-12 BW25113)): 0.0313
Fold, S. aureus [1]: −2 fold
MIC, S. aureus, MHB− [1]: 0.125 µg/mL

CC1(C)S[C@@H]2[C@H](NC(=O)[C@H](N)c3ccc(O)cc3)C(=O)N2[C@H]1C(=O)O [Amoxicillin]
Fold, E. coli (E. coli (K-12 BW25113)): −2 fold
MIC, E. coli, MHB+ (E. coli (K-12 BW25113)): 16
Fold, S. aureus [1]: −4 fold
MIC, S. aureus, MHB− [1]: 0.25 µg/mL

CCn1cc(C(=O)O)c(=O)c2cc(F)c(N3CCNCC3)cc21 [Norfloxacin]
Fold, E. coli (E. coli (K-12 BW25113)): 2 fold
MIC, E. coli, MHB+ (E. coli (K-12 BW25113)): 0.0625
Fold, S. aureus [1]: −2 fold
MIC, S. aureus, MHB− [1]: 0.5 µg/mL

Cc1onc(-c2ccccc2)c1C(=O)N[C@@H]1C(=O)N2[C@@H]1SC(C)(C)[C@@H]2C(=O)O [Oxacillin]
Fold, E. coli (E. coli (K-12 BW25113)): −2 fold
MIC, E. coli, MHB+ (E. coli (K-12 BW25113)): >256
Fold, S. aureus [1]: −16 fold
MIC, S. aureus, MHB− [1]: 0.0625 µg/mL

NC[C@H]1O[C@H](O[C@H]2[C@H](O)[C@@H](O[C@H]3O[C@H](CO)[C@@H](O)[C@H](N)[C@H]3O)[C@H](N)C[C@@H]2N)[C@H](O)[C@@H](O)[C@@H]1O [Kanamycin]
Fold, E. coli (E. coli (K-12 BW25113)): 4 fold
MIC, E. coli, MHB+ (E. coli (K-12 BW25113)): 1
Fold, S. aureus [1]: 2 fold
MIC, S. aureus, MHB− [1]: 8 µg/mL

Polymyxin B
Fold, E. coli (E. coli (K-12 BW25113)): −2 fold
MIC, E. coli, MHB+ (E. coli (K-12 BW25113)): 0.5
MIC, E. coli, MHB− (E. coli (K-12 BW25113)): 0.25
Fold, S. aureus [1]: 8 fold

C[C@H]1c2cccc(O)c2C(=O)C2=C(O)[C@]3(O)C(=O)C(C(N)=O)=C(O)[C@@H](N(C)C)[C@@H]3[C@@H](O)[C@@H]21 [Doxycycline]
Fold, E. coli (E. coli (K-12 BW25113)): −4 fold
MIC, E. coli, MHB+ (E. coli (K-12 BW25113)): 4
Fold, S. aureus [1]: −16 fold
MIC, S. aureus, MHB− [1]: 0.125 µg/mL

C[C@H]1COc2c(N3CCN(C)CC3)c(F)cc3c(=O)c(C(=O)O)cn1c23 [Levofloxacin]
Fold, E. coli (E. coli (K-12 BW25113)): 1 fold
MIC, E. coli, MHB+ (E. coli (K-12 BW25113)): 0.0313
Fold, S. aureus [1]: −2 fold
MIC, S. aureus, MHB− [1]: 0.5 µg/mL

Lysozyme
effect of physiological sodium bicarbonate on inhibitory activity (E. coli (K-12 BW25113); E. coli, 25 mM sodium bicarbonate): enhanced the inhibitory activity
MIC in MHB ([1]; S. aureus (strain Newman), MHB): >256 ** μg/mL
MIC in MHB + 25 mM bicarbonate ([1]; S. aureus (strain Newman), MHB + 25 mM sodium bicarbonate): >256 ** μg/mL

O=CN(O)CCCP(=O)(O)O [Fosmidomycin]
Fold, E. coli (E. coli (K-12 BW25113)): −2 fold
MIC, E. coli, MHB+ (E. coli (K-12 BW25113)): 32
Fold, S. aureus [1]: 1 fold
MIC, S. aureus, MHB− [1]: > 64 µg/mL

CC[C@H]1OC(=O)[C@H](C)[C@@H](O[C@H]2C[C@@](C)(OC)[C@@H](O)[C@H](C)O2)[C@H](C)[C@@H](O[C@@H]2O[C@H](C)C[C@H](N(C)C)[C@H]2O)[C@](C)(O)C[C@@H](C)C(=O)[C@H](C)[C@@H](O)[C@]1(C)O [Erythromycin]
MIC, E. coli, MHB+ (E. coli (K-12 BW25113)): 32
MIC, S. aureus, MHB− [1]: 32 µg/mL

CN[C@@H]1[C@H](O)[C@H](NC)[C@H]2O[C@@]3(O)C(=O)C[C@@H](C)O[C@H]3O[C@@H]2[C@H]1O [Spectinomycin]
Fold, E. coli (E. coli (K-12 BW25113)): 4 fold
MIC, E. coli, MHB+ (E. coli (K-12 BW25113)): 4
Fold, S. aureus [1]: 8 fold
MIC, S. aureus, MHB− [1]: 64 µg/mL

C[C@@H]1O[C@@H]1P(=O)(O)O [Fosfomycin]
Fold, E. coli (E. coli (K-12 BW25113)): −4 fold
MIC, E. coli, MHB+ (E. coli (K-12 BW25113)): 16
Fold, S. aureus [1]: −4 fold
MIC, S. aureus, MHB− [1]: 16 µg/mL

CC(=O)NC[C@H]1CN(c2ccc(N3CCOCC3)c(F)c2)C(=O)O1 [Linezolid]
Fold, E. coli (E. coli (K-12 BW25113)): 1 fold
MIC, E. coli, MHB+ (E. coli (K-12 BW25113)): 256
Fold, S. aureus [1]: 1 fold
MIC, S. aureus, MHB− [1]: 0.625 µg/mL

COc1c(N2C[C@@H]3CCCN[C@@H]3C2)c(F)cc2c(=O)c(C(=O)O)cn(C3CC3)c12 [Moxifloxacin]
MIC, E. coli, MHB+ (E. coli (K-12 BW25113)): 0.0156
MIC, S. aureus, MHB− [1]: 0.125 µg/mL

CN[C@@H]1[C@@H](O[C@H]2O[C@H](CO)[C@@H](N)[C@H](O)[C@H]2O)OC2C[C@@H](N)[C@@H](O[C@H]3[C@H](O)[C@@H](O)[C@H](N)C[C@@H]3N)OC2[C@@H]1O (some centres unmarked) [Apramycin]
Fold, E. coli (E. coli (K-12 BW25113)): 4 fold
MIC, E. coli, MHB+ (E. coli (K-12 BW25113)): 8
Fold, S. aureus [1]: 0.5 fold
MIC, S. aureus, MHB− [1]: 16 µg/mL

CO[C@@H]1[C@@H](OC(N)=O)[C@@H](O)[C@H](Oc2ccc3c(O)c(NC(=O)c4ccc(O)c(CC=C(C)C)c4)c(=O)oc3c2C)OC1(C)C [Novobiocin]
Fold, E. coli (E. coli (K-12 BW25113)): −8 fold
MIC, E. coli, MHB+ (E. coli (K-12 BW25113)): >256
Fold, S. aureus [1]: −16 fold
MIC, S. aureus, MHB− [1]: 0.031 µg/mL

Gentamicin
Fold, E. coli (E. coli (K-12 BW25113)): 8 fold
MIC, E. coli, MHB+ (E. coli (K-12 BW25113)): 0.25
effect of CCCP pre-treatment on potentiation by sodium bicarbonate (E. coli (K-12 BW25113)): abolishes the potentiation
MIC, E. coli, MHB− (E. coli (K-12 BW25113)): 2
Fold, S. aureus [1]: 2 fold

NC[C@@H]1O[C@H](O[C@H]2[C@@H](O)[C@H](O[C@@H]3[C@@H](O)[C@H](N)C[C@H](N)[C@H]3O[C@H]3O[C@H](CO)[C@@H](O)[C@H](O)[C@H]3N)O[C@@H]2CO)[C@H](N)[C@@H](O)[C@@H]1O [Paromomycin]
Fold, E. coli (E. coli (K-12 BW25113)): 2 fold
MIC, E. coli, MHB+ (E. coli (K-12 BW25113)): 1
Fold, S. aureus [1]: 1 fold
MIC, S. aureus, MHB− [1]: 2 µg/mL
